The assay has as its system Aβ plaques. The assay can be described thus: Aβ plaques (immunohistochemical staining) in 3×TG+/− mice. The assay is classed as in vivo, mouse. The following applies: 12-15 months old 3×TG+/− mice, 3.2 mg/kg/day for one month; vs DMSO. The procedure: Genetically engineered mice of 12-15 months old, 3×TG+/− (Oddo et al., 2003), RyR2-E4872Q+/− (EQ+/−)(Chen et al., 2014), 3×TG+/−/RyR2-E48720+/− (3×TG+/−/EQ+/−), and WT littermates of both sexes were used. Sex differences, which may produce biological variables, were not investigated in this study. R-carvedilol (R-CV) (3.2 mg/kg/day) and vehicle control (DMSO) were delivered to 3×TG+/− mice in drinking water for one month. As shown previously, only heterozygous RyR2-E4872Q+/− mutant mice were produced as homozygous E4872Q+/+mutation is embryonic lethal (Chen et al., 2014). Functional RyR2s are tetrameric channels formed by 4 RyR2 monomers. The heterozygous E4872Q+/− mutant mice (harboring one WT allele and one E4872Q mutant allele) will produce a mixture of homo- and hetero-tetrameric channels that contain the WT, E48720 mutant, or both WT/E4872Q mutant monomers. Thus, the RyR2-E4872Q mutation can exert its negative impact not only on the function of the E4872Q homo-tetramers, but also on the function of the WT monomer in the WT/E4872Q hetero-tetrameric channels.
Mice of different ages and genotypes were anesthetized and transcardially perfused with 10% neutral buffered formalin (NBF). Whole brains were removed and post-fixed in NBF for at least 24 h. The fixed brains were then embedded in paraffin after dehydration and diaphanization. […]

Molecules are shown by their SMILES.

As to `COc1ccccc1OCCNC[C@@H](O)COc1cccc2[nH]c3ccccc3c12` [R-carvedilol, R-(+)-carvedilol], the “area of Aβ plaques in the hippocampal region” value was “no significant difference” and the “number of Aβ plaques in the hippocampal region” value is reported as “no significant difference”.

These data come from patent publication US20230381139A1, “METHODS OF TREATING AND/OR PREVENTING ALZHEIMER’S DISEASE WITH R-CARVEDILOL” (priority 2020, published 2023).
